These results are taken from ChEMBL document CHEMBL1201862, “PubChem BioAssay data set” (2004).

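Grown in 96-well plates, cells were treated for 48 hours with each compound at five concentrations. Insufficient inhibition: endpoint recorded as highest concentration tested. GI50 is the concentration that inhibits growth by half.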 Calls of active or inactive are those of the source. No stated cut-off is given here; in the data, active = GI50 up to about 1.1 µM and inactive = higher.

Test systems include KM12; SW-620; RXF 393; UO-31; OVCAR-4; UACC-257; MDA-MB-231; MDA-N; OVCAR-5; A549; SF-539; NCI-H226; HT-29; EKVX; IGROV-1; HL-60; NCI-H522; HCT-15; SK-MEL-2; U-251.
What all share (test): growth of human tumour cells (NCI), 48 h

As for `CSc1ncnc2c1ncn2CCC(=O)OC(C)(C)C`, the GI50 with KM12, in the test on SW-620, with RXF 393, in the test with UO-31, in the test on OVCAR-4 and with UACC-257 was > 100 µM (inactive) throughout. Moreover, the GI50 in the test on MDA-MB-231, in the test on MDA-N, in the test on OVCAR-5, with A549, in the test with SF-539 and in the test on NCI-H226 was > 100 µM (inactive) each time. Also, the GI50 with HT-29, with EKVX, in the test with IGROV-1, in the test with HL-60 and in the test on NCI-H522 was > 100 µM (inactive) throughout.

As to `CC1CC(N)=C(C#N)C1(C#N)C#N` (configuration not stated), the GI50 in the test on KM12 is > 100 µM (inactive); with HCT-15 it was 28.4 µM; in the test on SK-MEL-2, > 100 µM (inactive); with SW-620 it was > 100 µM (inactive); in the test on RXF 393 it was > 100 µM (inactive); in the test with UO-31, > 100 µM (inactive). For the same molecule, the GI50 in the test with UACC-257, in the test with U-251, with MDA-MB-231, in the test with MDA-N, in the test on OVCAR-5 and in the test with A549 was > 100 µM (inactive) throughout. Moreover, the GI50 with SF-539, with NCI-H226, with HT-29, in the test on EKVX, in the test on IGROV-1 and in the test on HL-60 was > 100 µM (inactive) in each case. Moreover, in the test on NCI-H522, the GI50 was > 100 µM (inactive).

As to `COc1cc([C@@H]2c3cc4c(cc3[C@@H](Nc3ccc(/N=C\c5ccc(C(=O)O[C@@H](C(=O)O[C@H]6C[C@@]7(O)[C@@H](OC(=O)c8ccccc8)[C@@H]8[C@]9(OC(C)=O)CO[C@@H]9C[C@H](O)[C@@]8(C)C(=O)[C@H](OC(C)=O)C(=C6C)C7(C)C)[C@@H](NC(=O)c6ccccc6)c6ccccc6)cc5)cc3)[C@H]3COC(=O)[C@H]23)OCO4)cc(OC)c1O`, the GI50 with KM12 is 15.8 µM (inactive); with HCT-15 it was 7.96 µM; in the test with SK-MEL-2, > 33.7 µM (inactive); with SW-620 it was 8.73 µM (inactive); in the test on RXF 393 it was 6.12 µM (inactive); in the test on OVCAR-4, > 50 µM (inactive). Also, the GI50 in the test on UACC-257 is 28.6 µM (inactive); in the test with U-251 it was 3.34 µM (inactive); in the test on MDA-MB-231 it was 20.7 µM (inactive); in the test with MDA-N, 9.33 µM (inactive); in the test with OVCAR-5 it was 20.2 µM (inactive); in the test with A549, 0.721 µM (active). For the same molecule, the GI50 is 1.47 µM (inactive) with SF-539; 1.57 µM (inactive) in the test on NCI-H226; 9.04 µM (inactive) in the test with HT-29; 16.3 µM (inactive) in the test with EKVX; 12.4 µM (inactive) in the test on IGROV-1; 0.697 µM (active) with HL-60. Besides, the GI50 with NCI-H522 is > 21.3 µM (inactive).

As to `CCN1CCC(O)(/C=C/c2ccc(OC)cc2)C(C(=O)/C=C/c2ccc(OC)cc2)C1` (configuration not stated), the GI50 was 7.8 µM (inactive) with KM12; more than 10 µM in the test with HCT-15; 4.53 µM (inactive) with SW-620; 2.37 µM (inactive) in the test on RXF 393; 9.93 µM (inactive) with UO-31; 13.3 µM (inactive) in the test with OVCAR-4. Besides, the GI50 is 11.1 µM (inactive) with UACC-257; 6.34 µM (inactive) in the test with U-251; 5.02 µM (inactive) in the test on MDA-MB-231; 7.5 µM (inactive) with MDA-N; 15.2 µM (inactive) with OVCAR-5; 16.6 µM (inactive) with A549. Besides, the GI50 with SF-539 is 13.7 µM (inactive); with NCI-H226, 16 µM (inactive); with HT-29, 7.16 µM (inactive); in the test on EKVX, 13.6 µM (inactive); with IGROV-1 it was 13.7 µM (inactive); in the test on HL-60 it was 3.15 µM (inactive). Besides, the GI50 in the test with NCI-H522 is 12.5 µM (inactive).

For `COC(=O)/C=C\C(C#N)(C#N)/N=C/c1ccc(Br)cc1`, the GI50 in the test with KM12 was 14.4 µM (inactive); in the test with HCT-15 it was 2.94 µM; in the test with SK-MEL-2 it was 19.3 µM (inactive); with SW-620, 2.76 µM (inactive); in the test on RXF 393 it was 4.92 µM (inactive); with UO-31, 4.36 µM (inactive). Further, the GI50 with OVCAR-4 is 8.83 µM (inactive); with UACC-257 it was 14.8 µM (inactive); with U-251, 13.6 µM (inactive); with MDA-MB-231, 4.08 µM (inactive); in the test on MDA-N it was 5.71 µM (inactive); in the test with OVCAR-5, 14.1 µM (inactive). Further, the GI50 was 2.77 µM (inactive) in the test on A549; 6.4 µM (inactive) in the test with NCI-H226; 2.58 µM (inactive) in the test with HT-29; 14.2 µM (inactive) with EKVX; 14.3 µM (inactive) with IGROV-1; 0.0389 µM (active) with HL-60. The GI50 in the test on NCI-H522 is 0.489 µM (active).

For the molecule `O=C(N1CCN(c2ccccc2)CC1)N(C(=O)C1(c2ccc(Cl)cc2)CCCC1)S(=O)(=O)c1ccccc1`, the GI50 with KM12 was 35.9 µM (inactive); in the test on HCT-15, 25.1 µM; in the test on SK-MEL-2, 19.9 µM (inactive); in the test with SW-620, 32 µM (inactive); with RXF 393, 42.2 µM (inactive); in the test with UO-31, 32.8 µM (inactive). For the same molecule, the GI50 in the test with OVCAR-4 is 24.1 µM (inactive); in the test on UACC-257, 28.3 µM (inactive); with U-251 it was 21.8 µM (inactive); in the test on MDA-MB-231, 26.6 µM (inactive); with MDA-N it was 22.1 µM (inactive); with OVCAR-5, 24.8 µM (inactive). Moreover, the GI50 was 36.2 µM (inactive) in the test with A549; 22.1 µM (inactive) with SF-539; 33.3 µM (inactive) with NCI-H226; 27.9 µM (inactive) in the test with HT-29; 21.1 µM (inactive) in the test on EKVX; 27.7 µM (inactive) with HL-60. The GI50 in the test with NCI-H522 was 15.4 µM (inactive).

Take `NC1=C(c2nc(-c3ccccc3)cs2)C(c2ccco2)c2c(c3ccccc3oc2=O)O1` (configuration not stated): the GI50 in the test on HCT-15 was more than 100 µM; with SK-MEL-2, > 100 µM (inactive); in the test on SW-620, > 100 µM (inactive); in the test with RXF 393, 40.5 µM (inactive); in the test with UO-31 it was > 100 µM (inactive); in the test on OVCAR-4, > 100 µM (inactive). Also, the GI50 with UACC-257, in the test on U-251, in the test with MDA-MB-231, in the test on MDA-N, in the test with OVCAR-5 and with A549 was > 100 µM (inactive) throughout. Also, the GI50 in the test on SF-539 is > 100 µM (inactive); with NCI-H226, 38.2 µM (inactive); with HT-29 it was > 100 µM (inactive); in the test on EKVX it was > 100 µM (inactive); with IGROV-1 it was > 100 µM (inactive); in the test on HL-60, > 100 µM (inactive). The GI50 in the test with NCI-H522 is 76.2 µM (inactive).

As for `COc1ccc(-c2c(C(C)=O)c(C)n(C3OC(COC(C)=O)C(OC(C)=O)C(OC(C)=O)C3OC(C)=O)c(=S)c2C#N)cc1` (configuration not stated), the GI50 in the test on KM12 was > 100 µM (inactive); in the test with HCT-15, more than 100 µM; in the test on SK-MEL-2, 29.9 µM (inactive); in the test on SW-620, 72.8 µM (inactive); in the test on RXF 393 it was 80.7 µM (inactive); in the test with UO-31, 2.15 µM (inactive). The GI50 with OVCAR-4 is 73.1 µM (inactive); in the test with UACC-257 it was > 100 µM (inactive); in the test on U-251 it was > 100 µM (inactive); in the test on MDA-MB-231, 29.1 µM (inactive); in the test on MDA-N it was > 100 µM (inactive); with OVCAR-5, > 100 µM (inactive). The GI50 in the test with A549 was 66.2 µM (inactive); in the test on SF-539, > 100 µM (inactive); with NCI-H226 it was > 100 µM (inactive); in the test on HT-29, > 100 µM (inactive); in the test with IGROV-1, > 100 µM (inactive); with HL-60 it was 63.5 µM (inactive). Besides, the GI50 in the test with NCI-H522 is > 100 µM (inactive).

Consider `CCOC(=O)C1(O)C(=O)C2=C3C(=O)OC(C4OC(=O)c5c(c(O)c(O)c(O)c5C31)-c1c(cc(O)c(O)c1O)C(=O)OC1COC(=O)c3cc(O)c(O)c(O)c3-c3c(cc(O)c(O)c3O)C(=O)OC14)[C@@H]2O` (some centres not stated), for which the GI50 in the test with KM12 is 33.7 µM (inactive); with HCT-15, 17.6 µM; in the test on SK-MEL-2 it was 25.7 µM (inactive); with SW-620, 20.7 µM (inactive); in the test with RXF 393 it was 17.5 µM (inactive); in the test with UO-31, 26.4 µM (inactive). Moreover, the GI50 in the test on OVCAR-4 is 17.6 µM (inactive); with UACC-257, 28.5 µM (inactive); in the test with U-251 it was 19.2 µM (inactive); in the test with MDA-MB-231, 15.2 µM (inactive); in the test with MDA-N, 14.9 µM (inactive); with OVCAR-5, 15.9 µM (inactive). Further, the GI50 is 15.2 µM (inactive) in the test on A549; 16.5 µM (inactive) in the test with NCI-H226; 18.5 µM (inactive) with HT-29; 13.4 µM (inactive) in the test with EKVX; 26 µM (inactive) with IGROV-1; 19.1 µM (inactive) in the test with HL-60. Besides, the GI50 with NCI-H522 was 21 µM (inactive).

Regarding `COc1ccc(N[S+]([O-])CCc2ccccc2)cc1` (configuration not stated), the GI50 is > 100 µM (inactive) with KM12; more than 100 µM in the test with HCT-15; > 100 µM (inactive) with SW-620; > 100 µM (inactive) in the test with RXF 393; > 100 µM (inactive) in the test on UO-31; > 100 µM (inactive) in the test on UACC-257. For the same molecule, the GI50 in the test on U-251, in the test on MDA-MB-231, in the test with MDA-N, with OVCAR-5, in the test with A549 and in the test with SF-539 was > 100 µM (inactive) each time. Further, the GI50 in the test on NCI-H226 is > 100 µM (inactive); with HT-29, > 100 µM (inactive); in the test with EKVX, > 100 µM (inactive); with IGROV-1, 92.5 µM (inactive); with HL-60, > 100 µM (inactive); in the test on NCI-H522, > 100 µM (inactive).
